The values that follow come from US11986471B2, “Compounds and methods of use” (Tango Therapeutics, Inc., priority 2018, dated 2024).

Experiment [1] concerns HAP1 MTAP-intact. The experiment is described as follows: SDMA in-cell western assay, HAP1 MTAP-intact cell line. Format: cell-based. Conditions: Homo sapiens. The method in brief:
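HAP1 isogenic pair: endogenous MTAP vs MTAP-null. Readout SDMA by in-cell western; IC50 per line. Ratio ≥3 fold = MTAP-selective.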

For experiment [2], the target named is T1, PRMT5 (Homo sapiens, UniProt O14744).
T1 construct: purchased Viva (custom protein)
T1 sequence (O14744 whole entry): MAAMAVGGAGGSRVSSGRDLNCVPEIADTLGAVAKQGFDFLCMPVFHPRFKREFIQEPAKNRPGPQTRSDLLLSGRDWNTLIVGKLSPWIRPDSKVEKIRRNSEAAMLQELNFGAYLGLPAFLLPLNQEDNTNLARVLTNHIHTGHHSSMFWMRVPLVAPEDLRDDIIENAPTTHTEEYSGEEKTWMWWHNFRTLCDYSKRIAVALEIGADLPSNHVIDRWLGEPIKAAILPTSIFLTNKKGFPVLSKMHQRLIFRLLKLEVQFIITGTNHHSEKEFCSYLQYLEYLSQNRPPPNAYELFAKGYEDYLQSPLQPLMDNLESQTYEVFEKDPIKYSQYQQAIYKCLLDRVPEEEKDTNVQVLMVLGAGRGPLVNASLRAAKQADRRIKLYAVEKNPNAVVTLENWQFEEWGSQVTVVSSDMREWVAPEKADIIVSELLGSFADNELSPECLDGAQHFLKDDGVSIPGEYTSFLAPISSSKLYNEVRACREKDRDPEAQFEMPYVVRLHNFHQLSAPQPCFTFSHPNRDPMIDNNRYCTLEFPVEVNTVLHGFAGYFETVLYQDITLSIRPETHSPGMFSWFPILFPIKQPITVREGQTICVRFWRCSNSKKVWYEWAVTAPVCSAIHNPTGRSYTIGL
T1 sequence (Q9BQA1 whole entry partner): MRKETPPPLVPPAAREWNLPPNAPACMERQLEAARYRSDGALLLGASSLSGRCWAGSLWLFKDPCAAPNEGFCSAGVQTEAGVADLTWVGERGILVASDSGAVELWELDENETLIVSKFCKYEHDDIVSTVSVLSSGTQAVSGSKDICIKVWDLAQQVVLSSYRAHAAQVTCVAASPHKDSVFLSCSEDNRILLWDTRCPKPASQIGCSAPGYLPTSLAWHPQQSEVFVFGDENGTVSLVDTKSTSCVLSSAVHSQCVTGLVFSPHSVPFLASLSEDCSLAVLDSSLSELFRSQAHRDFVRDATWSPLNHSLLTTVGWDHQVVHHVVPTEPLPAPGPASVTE
Briefly: PRMT5 IC50 assay in the presence of SAM as cofactor. Format: biochemical. Put shortly:
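Each compound is tested on PRMT5 in the presence of SAM, of MTA, and without any cofactor. Ki values are then back-calculated using fixed factors of 1.5 (SAM) and 13.5 (MTA), and the two Ki values are compared as a ratio.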

The target of experiment [3] is T1, PRMT5. The experiment is described as follows: PRMT5 IC50 assay in the presence of MTA as cofactor. Format: biochemical. Conditions: for pIC50: PRMT5, MTA as cofactor. Put shortly: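 Three cofactor conditions tested for PRMT5 inhibition: none, MTA and SAM, each giving an IC50. For conversion to Ki, the MTA-condition IC50 is divided by 13.5 and the SAM-condition IC50 by 1.5, and the two Ki values are expressed as a SAM/MTA ratio.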

Experiment [4] deals with T1, PRMT5. Briefly: PRMT5 IC50 assay with no cofactor. It counts as biochemical. Put shortly:
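IC50 against PRMT5 determined with SAM as cofactor, with no cofactor, and with MTA as cofactor. Ki derived as IC50/1.5 for the SAM assay and IC50/13.5 for the MTA assay; SAM Ki to MTA Ki ratio also reported.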

The test system of experiment [5] is HAP1 MTAP-deleted. Briefly: SDMA in-cell western assay, HAP1 MTAP-deleted cell line. Format: cell-based. Conditions: for pIC50: Homo sapiens, HAP1 MTAP-deleted cell line; for MTAP Intact/Deleted Ratio: IC50 ratio HAP1 MTAP-intact / HAP1 MTAP-deleted. The method in brief:
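IC50 from SDMA in-cell western; HAP1 line lacking MTAP (null), paired isogenically with MTAP-intact HAP1 expressing endogenous MTAP.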

Setting [6] is: ratio between the Ki in the presence of SAM and the Ki in the presence of MTA.
Where [7] appears, read: ratio between Ki in the presence of SAM and Ki in the presence of MTA.

Each structure is given as a SMILES string. pIC50: −log10 of the molar value.

Consider `O=C(NC[C@H](O)CN1CCc2cc(OCc3cnco3)c(F)cc2C1)c1ccnc(NC2CCC2)c1` [Compound 513, 2-(cyclobutylamino)-N-[(2S)-3-[7-fluoro-6-(oxazol-5-ylmethoxy)-3,4-dihydro-1H-isoquinolin-2-yl]-2-hydroxy-propyl]pyridine-4-carboxamide], for which the pIC50 is ≤ 5.00 in experiment [1]; 5.30 to 6.30 in experiment [2]; 6.30 to 7.30 in experiment [3]; ≤ 5.30 in experiment [4]; 5.00 to 6.00 in experiment [5]. For the same compound, the “SAM/MTA Ratio” value in experiment [3] (setting [6]) is “A (a Ki ratio greater than or equal to 10 fold between the Ki in the presence of SAM and the Ki in the presence of MTA)”. For the same compound, the “MTAP Intact/Deleted Ratio” value in experiment [5] is “B* (an IC50 ratio greater than or equal to 3 fold but lower than 10 fold between the IC50 in the HAP1 MTAP-intact cell line and the HAP1 MTAP-deleted cell line)”.

For the compound `CC(=O)N1CCC(Nc2cc(C(=O)NC[C@H](O)CN3CCc4c(ccc(OCc5ocnc5C)c4C)C3)cc(N3CCCCC3)n2)CC1` [Compound 595], the pIC50 is 5.00 to 6.00 in experiment [1]; 6.30 to 7.30 in experiment [2]; > 7.30 in experiment [3]; 5.30 to 6.30 in experiment [4]; > 6.00 in experiment [5]. In addition, the “SAM/MTA Ratio” value in experiment [3] (setting [6]) is “A (a Ki ratio greater than or equal to 10 fold between the Ki in the presence of SAM and the Ki in the presence of MTA)”. Moreover, the “MTAP Intact/Deleted Ratio” value in experiment [5] was “A* (an IC50 ratio greater than or equal to 10 fold between the IC50 in the HAP1 MTAP-intact cell line and the HAP1 MTAP-deleted cell line)”.

Regarding `CC(=O)N1CC(Nc2cc(C(=O)NC[C@H](O)CN3CCc4cc(OCc5cnco5)ccc4C3)nc(N3CCOCC3)n2)C1` [Compound 583], the negative logarithm of the IC50 (pIC50) in experiment [1] is ≤ 5.00; in experiment [2], 6.30 to 7.30; in experiment [3] it was 6.30 to 7.30; in experiment [4], 5.30 to 6.30; in experiment [5], 5.00 to 6.00. For the same compound, in experiment [3] (setting [6]), the “SAM/MTA Ratio” value was “A (a Ki ratio greater than or equal to 10 fold between the Ki in the presence of SAM and the Ki in the presence of MTA)”. In addition, the “MTAP Intact/Deleted Ratio” value in experiment [5] is “C* (an IC50 ratio of less than 3 fold between the IC50 in the HAP1 MTAP-intact cell line and the HAP1 MTAP-deleted cell line)”.

Turning to `O=C(NC[C@H](O)CN1CCc2cc(OCc3cnco3)c(Cl)cc2C1)c1ccnc(NC2CCC2)c1` [Compound 281, N-[(2S)-3-[7-chloro-6-(oxazol-5-ylmethoxy)-3,4-dihydro-1H-isoquinolin-2-yl]-2-hydroxy-propyl]-2-(cyclobutylamino)pyridine-4-carboxamide], the pIC50 in experiment [1] was ≤ 5.00; in experiment [2] it was 5.30 to 6.30; in experiment [3], 6.30 to 7.30; in experiment [4] (read-out: No Co-factor IC50), ≤ 5.30; in experiment [5], 5.00 to 6.00. For the same compound, the “SAM/MTA Ratio” value in experiment [3] (setting [7]) was “A (a Ki ratio greater than or equal to 10 fold between the Ki in the presence of SAM and the Ki in the presence of MTA)”. Moreover, the “MTAP Intact/Deleted Ratio” value in experiment [5] was “C* (an IC50 ratio of less than 3 fold between the IC50 in the HAP1 MTAP-intact cell line and the HAP1 MTAP-deleted cell line)”.

Turning to `COc1cc(C(=O)NC[C@H](O)CN2CCc3cc(OCc4cnco4)ccc3C2)cc(NC2CCC2)n1` [Compound 310, (S)-2-(cyclobutylamino)-N-(2-hydroxy-3-(6-(oxazol-5-ylmethoxy)-3,4-dihydroisoquinolin-2(1H)-yl)propyl)-6-methoxyisonicotinamide], the pIC50 in experiment [1] is 5.00 to 6.00; in experiment [2], 5.30 to 6.30; in experiment [3], 6.30 to 7.30; in experiment [4] (read-out: No Co-factor IC50), ≤ 5.30; in experiment [5] it was 5.00 to 6.00. In addition, the “SAM/MTA Ratio” value in experiment [3] (setting [7]) was “A (a Ki ratio greater than or equal to 10 fold between the Ki in the presence of SAM and the Ki in the presence of MTA)”. Also, in experiment [5], the “MTAP Intact/Deleted Ratio” value is “B* (an IC50 ratio greater than or equal to 3 fold but lower than 10 fold between the IC50 in the HAP1 MTAP-intact cell line and the HAP1 MTAP-deleted cell line)”.
